Results reported in patent publication US5594012A, “Amino acid derivatives and anti-active oxygen agents” (Ajinomoto Co., Inc., priority 1992, dated 1997).

Tests used:
[1] = test system: lipid peroxidation in homogenate of murine swiss 3T3 cells; test: Inhibitory effects on UV-induced lipid peroxidation (homogenate of murine swiss 3T3 cells); assay type: biochemical; settings: 1 mM test compound; UVB 0.4 mW/cm^2, 90 min; pH 7.2 to 7.8; TBA, 535 nm
Experimental: Test for Inhibitory Effects on UV-induced Lipid Peroxidation
The test was carried out on the basis of the methods described in Biochim. Biophys. […] Namely, 12 μl of an aqueous sodium hydroxide solution of each of the test compounds shown in Table 5 below was added to 1.2 ml of a homogenate of murine swiss 3T3 cells (i.e. a kind of murine skin cells) prepared by a conventional method in 20 mM phosphate buffer (protein content: 1.5 to 1.8 mg/ml). The final concentration of the test compounds was adjusted to be 1 mM and the pH of the solution was adjusted to 7.2 to 7.8. If test compounds were not soluble in an aqueous sodium hydroxide solution, they were dissolved in N,N-dimethyl sulfoxide (DMSO).
This solution (1.1 ml) was irradiated with UV rays (0.4 mW/cm^2, 90 min.) using a UVB lamp "EB-280C/J" (manufactured by Spectronics). To an aliquot (1.0 ml) of this solution were successively added 0.2 ml of an aqueous solution of sodium dodecyl sulfate and 1.0 ml of an aqueous solution of thiobarbituric acid/trichloroacetic acid/hydrochloric acid, and the mixed solution was heated in a boiling water bath for 15 minutes. After ice-cooling, the solution was extracted with 1.0 ml of 1-butanol to prepare a sample for determining peroxide lipid as absorbance at a wavelength of 535 nm using a spectrophotometer "Model 320" (manufactured by Hitachi).
(§1) [formula] A1 : Absorbance when a test compound was added. A2 : Absorbance when a test compound was not added.
A3 : Absorbance when a test compound was not added and UV rays were not irradiated.

hydroxyl radical [2] = test: Inhibitory effects on hydroxyl radical formation (1) (xanthine/xanthine oxidase, deoxyribose); assay type: biochemical; settings: 360 μM test compound; 36 μM ammonium iron (III) sulphate; xanthine oxidase 0.7 unit/ml; 37° C., 15 minutes; pH 7.4 to 7.8
Experimental: Test for Inhibitory Effects on Hydroxyl Radical Formation (1)
The test was carried out in accordance with the method described in FEBS Letters, Vol. 128, page 347, 1981. Namely, to 1.1 ml of a solution of 54 mM sodium chloride in 9 mM phosphate buffer (hereinafter referred to as "PBS-I") were successively added 140 μl of a solution of each of the test compounds shown in Table 6 below in PBS-1, […] of a 1 mM solution of ammonium iron (III) sulphate in hydrochloric acid, 140 μl of a solution of xanthine (manufactured by Tokyo Kasei Co.) in PBS-1, 14 μl a solution of deoxyribose (Sigma) in PBS-1 and xanthine oxidase (Sigma). The final concentrations of the test compounds, ammonium iron (III) sulphate, xanthine, deoxyribose and xanthine oxidase were adjusted to be 360 μM, 36 μM, 70 μM, 700 μM and 0.7 unit/ml, respectively. If test compounds were not soluble in PBS-1 alone, aqueous sodium hydroxide solution or DMSO was added. The pH of the solution was adjusted to 7.4 to 7.8.
. The percent inhibition of the hydroxyl radical was calculated from the following equation (2) and the results are shown in Table 6. [formula] F1 : Intensity of fluorescence when a test compound was added. F2 : Intensity of fluorescence when a test compound was added but deoxyribose was not added.
F3 : Intensity of fluorescence when a test compound was not added.
F4 : Intensity of fluorescence when neither test compound nor deoxyribose was added.

[3] = test system: lipid peroxidation in murine brain homogenate; test: Inhibitory effects on metal ion-induced lipid peroxidation (murine brain homogenate); assay type: biochemical, murine (C57 black mouse); settings: 1 mM test compound; 100 μM ammonium iron (II) sulphate; 37° C., 30 minutes; pH 7.2 to 7.8
Experimental: Test for Inhibitory Effects on Metal Ion-induced Lipid Peroxidation
(§2) The test was carried out according to the method described in Method in Enzymol., Vol. 52, page 302, 1978. A C57 black mouse was killed by cervical dislocation, and the whole brain extracted from the dissected head was washed with 20 mM phosphate buffer (hereinafter referred to as "PBS-2"). Then, the brain was added with PBS-2 in an amount of 19 times its wet weight, and the mixture was disrupted and homogenized with a homogenizer "Polytron" (manufactured by Kinematica). The thus prepared 5% solution of the murine brain homogenate in PBS-2 was diluted 1:5 with fresh PBS-2. To 800 μl of the resulting 1% solution of the murine brain homogenate in PBS-2 (protein content: 0.8 to 1.0 mg/ml) were successively added 100 μl of a PBS-2 solution of each of the test compounds shown in Table 7 below and 100 μl of an aqueous solution of ammonium iron (II) sulphate. The final concentration of the test compounds and ammonium iron (II) sulphate were adjusted to be 1 mM and 100 μM, respectively. If test compounds were not soluble in PBS-2 alone, an aqueous sodium hydroxide solution or DMSO was added. The pH of the solution was adjusted to 7.2 to 7.8.
The solution after heated at 37° C. for 30 minutes was added with 2.0 ml of an aqueous solution of thiobarbituric acid/trichloroacetic acid/hydrochloric acid, and the mixture was heated in a boiling water bath for 15 minutes. After ice-cooling, the solution was extracted with 1.0 ml of 1-butanol to prepare a sample for determining the peroxide lipid in the same way as described in Test Example 1.
as §1
A3 : Absorbance when a test compound was not added and heating at 37° C. for 30 minutes was not carried out.

[4] = test system: lipid peroxidation in murine brain homogenate; test: Inhibitory effects on lipid peroxidation (murine brain homogenate); assay type: biochemical, murine (C57 black mouse); settings: 30 μM test compound; no added iron; 37° C., 60 minutes; pH 7.2 to 7.8
Experimental: as §2
Test for Inhibitory Effects on Lipid Peroxidation
To 900 μl of a 5% solution of the murine brain homogenate in PBS-2 prepared in the same way as described in Test Example 3 was added 100 μl of a PBS-2 solution of each of the test compounds shown in Table 8 below. The final concentration of the test compounds was adjusted to be 30 μM. If test compounds were not soluble in PBS-2 alone, an aqueous solution of sodium hydroxide or DMSO was added. The pH of the solution was adjusted to 7.2 to 7.8.
The solution after heated at 37° C. for 60 minutes was added with 1.0 ml of an aqeuous solution of thiobarbituric acid/trichloroacetic acid/hydrochloric acid, and the mixture was heated in a boiling water bath for 15 minutes. After ice-cooling, the solution was extracted with 2.0 ml of 1-butanol to prepare a sample for determining the lipid peroxide in the same way as described in Test Example 1. […] [formula] A4 : Absorbance when a test compound was added. A5 : Absorbance when a test compound was not added.
A6 : Abosrbance when a test compound was not added and heating at 37° C. for […] was not carried out.

hydroxyl radical [5] = test: Inhibitory effects on hydroxyl radical formation (2) (iron (II)/hydrogen peroxide, DMPO, ESR); assay type: biochemical; settings: 306 μM test compound; 306 μM iron (II) sulphate; 75 mM DMPO; 306 μM hydrogen peroxide; ESR within 40 seconds
Experimental: Test for Inhibitory Effects on Hydroxyl Radical Formation (2)
To 75 μl of a solution of each of the test compounds shown in Table 9 below in 0.1M phosphate buffer (hereinafter referred to as "PBS-3") were successively added 75 μl of an aqueous solution of iron (II) sulphate, 20 μl of an aqueous solution of 5,5-dimethyl-1-pyrroline-N-oxide "DMPO" (manufactured by Dojin Chemical) and 75 μl of an aqueous solution of hydrogen peroxide. […] If test compounds were not soluble in PBS-3 alone, an aqueous sodium hydroxide solution or N,N-dimethyl formamide was added.
This solution was subjected to determination for the hydroxy radical immediately (within 40 seconds), using an electron spin resonance (ESR) meter "JES-FR80S" (manufactured by Nippon Denshi).
[formula] E1 : Signal magnitude when a test compound was added. E2 : Signal magnitude when a test compound was not added.

UV absorptive activities = assay type: physicochemical; settings: 100 μM in ethanol (water or DMSO added if not soluble)
Experimental: Test for UV Absorptive Activities
A solution of each of the test compounds shown in Table 10 below in ethanol was prepared for the final concentration to be 100 μM. If test compounds were not soluble in ethanol alone, water or DMSO was added.
The absorption spectrum of each sample was determined using a spectrophotometer "Model 320" (manufactured by Hitachi).

With `O=C(O)C(CO)N=Cc1c(O)ccc2ccccc12` (stereo not shown) [Synthesis Example 28] as the compound, how does the “% Inhibition of UV-induced lipid peroxidation” value [1] read?
The value was 20%.

What about the “% Inhibition of hydroxyl radical” value (hydroxyl radical [2]) of the same compound?
Its value is 19%.

What about the “% Inhibition of metal ion-induced lipid peroxidation” value [3] of the same compound?
The value was 80%.

And the “% Inhibition of lipid peroxidation” value [4]?
Its value is 70%.

What about the “% Inhibition of hydroxy radicals” value (hydroxyl radical [5]) of the same compound?
The value was 56%.

And the “Wavelength (nm) of maximum absorption” value (UV absorptive activities)?
Its value is 307 nm.

And the “Maximum molar extinction coefficient” value (UV absorptive activities; UVA and UVB regions)?
The value was 10,000.
